Measurements: article PMC4865845, “A human genome-wide loss-of-function screen identifies effective chikungunya antiviral drugs” (Nature Communications, 2016)

These substances were tested on CHIKV.
Format: cell-based, chikungunya virus

Substance	Score_si4	Score_si1	Score_si3	Score_si2
Hs_PTPN6_5 (sense CCGGAACAAATGCGTCCCATA; chemistry not given here)	1.05			
Hs_PTX3_2 (sense AAGAAAGAAACTCACACTTAA; chemistry not given here)		1.48		
Hs_PTX3_3 (sense AAAGGGATTTGTATTAATTTA; chemistry not given here)			1.09	
Hs_RAB3D_1 (sense CAGGCCCTGTTTAGCTGTTTA; chemistry not given here)		1.76		
Hs_RAB3D_3 (sense CTGGAACTATGGACCACATTA; chemistry not given here)	0.77			
Hs_RAB3D_4 (sense AAGCAAGTTCTTGCCCAATCA; chemistry not given here)				1.56
Hs_RAB3D_5 (sense TCCGTGGTGCCTTCTAGCTTA; chemistry not given here)			0.91	
Hs_RAD51L3_2 (sense CTCACTCTCTGTAAGCATATA; chemistry not given here)			0.7	
Hs_RAD51L3_4 (sense CCCAGTAACGCCTGCTGTTTA; chemistry not given here)	0.33			
Hs_RAD51L3_5 (sense CTGGAAGAGGTAGCTCAGAAA; chemistry not given here)		2.71		
Hs_RARSL_3 (sense CACAGGAGTCTTCCTACAGTA; chemistry not given here) [reference compound]		-2.94		
Hs_RARSL_4 (sense CCAGCTTTCCAGAGTGTTGAA; chemistry not given here) [reference compound]			-1.26	
Hs_RARSL_6 (sense TAGATCGAATGGACAAGTATA; chemistry not given here) [reference compound]				-1.49
Hs_RASL11B_2 (sense ATGCTTTGGCTTAAACTGTAA; chemistry not given here)		2.53		
Hs_ROCK1_1 (sense ACGGTTAGAACAAGAGGTAAA; chemistry not given here)	0.5			
Hs_ROCK1_3 (sense CAGATAAAGATCACACTGTTA; chemistry not given here)			0.95	
Hs_ROCK1_9 (sense AACGGTTAGAACAAGAGGTAA; chemistry not given here)		1.18		
Hs_RORC_2 (sense TAGGATGTGCCGGGCCTACAA; chemistry not given here)		1.28		
Hs_RORC_3 (sense CCGGGCCTACAATGCTGACAA; chemistry not given here)	0.9			
Hs_RPS6KC1_1 (sense CCGGGTTGTTTCACGAAGAAA; chemistry not given here) [reference compound]				-1.09
Hs_RPS6KC1_3 (sense ACCCTGATGCTGTATAATGTA; chemistry not given here) [reference compound]		-2.87		
Hs_RRBP1_1 (sense CACGTAGAGGATGGTGACATA; chemistry not given here)				1.82
Hs_RRBP1_3 (sense CTGGCTGCAGGTGAAAGGAAA; chemistry not given here)	1.53			
Hs_RRBP1_4 (sense AAGAGATTGTAGAGAAGCTAA; chemistry not given here)			1.79	
Hs_RTN2_1 (sense TTGGATTTACACTGTAATAAA; chemistry not given here)	0.49			

Substance	Score_si4	Score_si1	Score_si3	Score_si2
Hs_RTN2_2 (sense GAGCTTGGATTTACACTGTAA; chemistry not given here)		2.8		
Hs_RXRA_1 (sense TTCGTGTAAGCAAGTACATAA; chemistry not given here)		2.2		
Hs_RXRA_3 (sense TCCGTACGATTGTCTCTGAAA; chemistry not given here)	0.81			
Hs_RXRA_4 (sense CTCATCGGCCTTGTAGTTGTA; chemistry not given here)				1.74
Hs_SAFB_1 (sense ACGGACTGTAGTAATGGATAA; chemistry not given here)			0.86	
Hs_SAFB_2 (sense AAGGTGGTAATCCTGACGAAA; chemistry not given here)				0.95
Hs_SAFB_3 (sense CTGCCATATTGTAGCTCAATA; chemistry not given here)		1.4		
Hs_SARS_2 (sense CTGATGAAACCATGTAATAAA; chemistry not given here)		2.9		
Hs_SCLY_1 (sense CTGACTCAGCTTATACCTTAA; chemistry not given here)			1.21	
Hs_SCLY_2 (sense CAGAAACTAAATTAACGAATA; chemistry not given here)	1.04			
Hs_SDFR1_8 (sense CAGGTATATACAGCATATAAA; chemistry not given here) [reference compound]		-2.41		
Hs_SDFR1_9 (sense CTGGTACATAAAGATGAGTAA; chemistry not given here) [reference compound]			-1.41	
Hs_SDFR1_10 (sense ACAGGTATATACAGCATATAA; chemistry not given here) [reference compound]				-2.32
Hs_SDFR1_11 (sense TACATAAAGATGAGTAATATA; chemistry not given here) [reference compound]	-1.37			
Hs_SEC61B_1 (sense TTTAATTCACTTATACTGAAA; chemistry not given here)		1.55		
Hs_SEC61B_2 (sense CCCAACATTTCTTGGACCAAA; chemistry not given here)			1.09	
Hs_SHC2_10 (sense GCGGTTTGTCCTACAAGTTTA; chemistry not given here)	0.47			
Hs_SHC2_11 (sense TCGGTGCTGGTGGAACAGAAA; chemistry not given here)		2.36		
Hs_SIMP_1 (sense CAGGGAGACATTAGATCACAA; chemistry not given here) [reference compound]	-0.7			
Hs_SIMP_2 (sense CTGGCTTGTTAGGATATATAA; chemistry not given here) [reference compound]		-2.63		
Hs_SIN3A_5 (sense GAGCGTGTAAGCAAGCGTCTA; chemistry not given here)		2.49		
Hs_SLC6A19_2 (sense CTCGGTGATTGTGTCCATCAT; chemistry not given here)		2.5		
Hs_SLC6A19_4 (sense CCAGAAGATCTCCTACCCGAA; chemistry not given here)				0.84
Hs_SREBF2_1 (sense ACCCATAATATCATTGAGAAA; chemistry not given here)	1.37			
Hs_SREBF2_3 (sense CTGCAATTTGTCAGTAATCAA; chemistry not given here)		2.21		

Substance	Score_si4	Score_si1	Score_si3	Score_si2
Hs_SREBF2_4 (sense AAGGCCATTGATTACATCAAA; chemistry not given here)			1.41	
Hs_SSP411_1 (sense ATGGCCTTGCATACCCTGAAA; chemistry not given here)		2.33		
Hs_SULF1_1 (sense TCCGTCGAATTTGAAGGTGAA; chemistry not given here) [reference compound]		-2.1		
Hs_SULF1_3 (sense CTGGTGTTTGCGTACAGTTAA; chemistry not given here) [reference compound]	-0.77			
Hs_SULF1_4 (sense AGCATGGATTTGATTATGCAA; chemistry not given here) [reference compound]				-1.41
Hs_SYMPK_1 (sense CAGGAGCTGATCATCAACAAA; chemistry not given here)			1.54	
Hs_SYMPK_2 (sense CAGCCTGGTGACACAGTTCAA; chemistry not given here)				1.86
Hs_TADA3L_1 (sense CTGACCGAACTGGACACTAAA; chemistry not given here) [reference compound]				-1.72
Hs_TADA3L_2 (sense ACCGACTGGCAGGATAAGAAA; chemistry not given here) [reference compound]		-1.99		
Hs_TAZ_2 (sense CCGCCACATCTGGAACCTGAA; chemistry not given here)		2.45		
Hs_TGIF_1 (sense TACCCAGAGGACACTTGTAAA; chemistry not given here)		1.41		
Hs_TGIF_4 (sense TACCACTGTGACTGCATTGAA; chemistry not given here)	0.65			
Hs_TGIF_6 (sense TCCAAGAACTATAAACTTAAA; chemistry not given here)			1	
Hs_THRAP6_1 (sense ATGAAAGATTATTGTAATAAA; chemistry not given here) [reference compound]				-1.47
Hs_THRAP6_6 (sense CTGAGATTGGTATATGACAAA; chemistry not given here) [reference compound]		-1.48		
Hs_TMPIT_1 (sense CTGGTGGGTGTTCCATCACTA; chemistry not given here)		2.87		
Hs_TOR2A_2 (CACGGGTGGCGAGCAGATCAA; chemistry not given here)		2.35		
Hs_TRAF2_2 (CAGAGTTATTAAACCATTCAA; chemistry not given here) [reference compound]				-0.92
Hs_TRAF2_4 (CTGGACCAAGACAAGATTGAA; chemistry not given here) [reference compound]		-1.15		
Hs_TRAF2_5 (CACGAGGGCATATATGAAGAA; chemistry not given here) [reference compound]	-0.76			
Hs_TREX2_1 (CACAATGGCTTTGATTATGAT; chemistry not given here) [reference compound]		-2.42		
Hs_TRRAP_1 (AAGATTCGACAGCAAGTTAAA; chemistry not given here)	1.01			
Hs_TUSC1_1 (TCCCTGTACATCTAATATATA; chemistry not given here) [reference compound]		-1.75		
Hs_TUSC1_2 (ACCGATCATTCTATTATCATT; chemistry not given here) [reference compound]				-1.18
